In patent US9938261B2, “Heterocyclic compounds and methods of use thereof” (AMBIT BIOSCIENCES CORPORATION, priority 2011, dated 2018):
Read-outs that look alike come from different tables or passages of the source.

Experiments:
[1] = molecular target: kinase panel containing either 386 or 392 distinct kinases; experiment: Kinase selectivity score S10 from competition binding panel
Procedure: Competition binding assays used herein were developed, validated and performed as described in Fabian et al., Nature Biotechnology 2005, 23, 329-336. Kinases were produced as fusions to T7 phage (See, Fabian et al. or WO04/015142) or alternatively, the kinases were expressed in HEK-293 cells and subsequently tagged with DNA for PCR detection (See, WO08/005310). For the binding assays, streptavidin-coated magnetic beads were treated with biotinylated affinity ligands for 30 min at room temperature to generate affinity resins. The liganded beads were blocked with excess biotin and washed with blocking buffer (SeaBlock (Pierce), 1% BSA, 0.05% Tween 20, 1 mM DTT) to remove unbound ligand and to reduce non-specific binding. Binding reactions were assembled by combining kinase, liganded affinity beads, and test compounds in 1× binding buffer (20% SeaBlock, 0.17×PBS, 0.05% Tween 20, 6 mM DTT). Test compounds were prepared as 100× stocks in DMSO and diluted into the aqueous environment. Kds were determined using an eleven point threefold serial dilutions. DMSO or control compounds were was added to control assays lacking a test compound. Primary screen assays were performed in polypropylene 384-well plates in a final volume of 20-40 μL, while Kd determinations were performed in polystyrene 96-well plates in a final volume of 135 μL. The assay plates were incubated at room temperature with shaking for 1 hour to allow the binding reactions to reach equilibrium, and the affinity beads were washed extensively with wash buffer (1×PBS, 0.05% Tween 20) to remove unbound protein. The beads were then resuspended in elution buffer (1×PBS, 0.05% Tween […] non-biotinylated affinity ligand) and incubated at room temperature with shaking for 30 min. The kinase concentration in the eluates was measured by quantitative PCR.
A selectivity score (S10) is a quantitative measure of selectivity of a compound against a panel of kinases. An S10 was calculated for a compound by dividing the number of kinases found to have a percent of control (DMSO) less than 10 by the total number of distinct kinases tested (excluding mutant variants). Percent of control (POC) is calculated by subtracting the signal of the control compound (POC=0) from the signal of the test compound and dividing the outcome by the signal of DMSO (POC=100) minus the signal of the control compound. For the compounds disclosed herein, S10 scores were obtained by testing the compounds at 10 μM concentration in a kinase panel containing either 386 or 392 distinct kinases.

CSF1R = CSF1R (Homo sapiens, UniProt P07333); experiment: Competition binding assay, CSF1R Kd; set-up: made in house
CSF1R, sequence (P07333 20-972): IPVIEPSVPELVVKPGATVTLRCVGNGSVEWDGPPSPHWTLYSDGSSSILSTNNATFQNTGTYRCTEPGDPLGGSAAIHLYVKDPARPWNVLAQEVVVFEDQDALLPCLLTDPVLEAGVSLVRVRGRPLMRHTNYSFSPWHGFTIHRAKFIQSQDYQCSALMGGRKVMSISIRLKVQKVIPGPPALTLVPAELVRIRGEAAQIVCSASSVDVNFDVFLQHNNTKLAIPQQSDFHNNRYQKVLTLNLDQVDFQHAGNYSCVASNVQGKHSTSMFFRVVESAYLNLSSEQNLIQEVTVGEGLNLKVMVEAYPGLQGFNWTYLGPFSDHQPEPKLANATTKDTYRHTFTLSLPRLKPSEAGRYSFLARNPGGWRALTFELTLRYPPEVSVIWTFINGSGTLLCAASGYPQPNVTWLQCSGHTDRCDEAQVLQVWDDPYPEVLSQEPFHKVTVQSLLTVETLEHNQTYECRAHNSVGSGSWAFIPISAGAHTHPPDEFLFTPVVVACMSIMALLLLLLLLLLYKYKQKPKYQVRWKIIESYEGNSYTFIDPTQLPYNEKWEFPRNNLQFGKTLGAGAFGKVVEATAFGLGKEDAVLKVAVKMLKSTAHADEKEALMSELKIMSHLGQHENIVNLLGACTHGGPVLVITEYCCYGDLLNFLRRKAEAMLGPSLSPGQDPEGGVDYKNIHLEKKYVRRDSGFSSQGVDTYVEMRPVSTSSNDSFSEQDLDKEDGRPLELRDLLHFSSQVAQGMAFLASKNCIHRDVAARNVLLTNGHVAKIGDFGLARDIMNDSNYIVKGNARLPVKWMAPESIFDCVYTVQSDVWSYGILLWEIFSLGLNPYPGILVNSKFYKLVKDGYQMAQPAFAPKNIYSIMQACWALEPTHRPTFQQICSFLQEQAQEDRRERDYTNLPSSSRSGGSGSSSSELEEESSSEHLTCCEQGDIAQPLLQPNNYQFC
Outline: (§1)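 Compound displacement of kinase from bead-immobilized ligand is measured by qPCR after 1 h equilibration at room temperature. Kinases are T7 phage fusions or DNA-tagged HEK-293 products.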

KIT = molecular target: T1, KIT (Homo sapiens, UniProt P10721); experiment: Competition binding assay, KIT Kd
T1 construct: made in house
T1 sequence (P10721 26-976): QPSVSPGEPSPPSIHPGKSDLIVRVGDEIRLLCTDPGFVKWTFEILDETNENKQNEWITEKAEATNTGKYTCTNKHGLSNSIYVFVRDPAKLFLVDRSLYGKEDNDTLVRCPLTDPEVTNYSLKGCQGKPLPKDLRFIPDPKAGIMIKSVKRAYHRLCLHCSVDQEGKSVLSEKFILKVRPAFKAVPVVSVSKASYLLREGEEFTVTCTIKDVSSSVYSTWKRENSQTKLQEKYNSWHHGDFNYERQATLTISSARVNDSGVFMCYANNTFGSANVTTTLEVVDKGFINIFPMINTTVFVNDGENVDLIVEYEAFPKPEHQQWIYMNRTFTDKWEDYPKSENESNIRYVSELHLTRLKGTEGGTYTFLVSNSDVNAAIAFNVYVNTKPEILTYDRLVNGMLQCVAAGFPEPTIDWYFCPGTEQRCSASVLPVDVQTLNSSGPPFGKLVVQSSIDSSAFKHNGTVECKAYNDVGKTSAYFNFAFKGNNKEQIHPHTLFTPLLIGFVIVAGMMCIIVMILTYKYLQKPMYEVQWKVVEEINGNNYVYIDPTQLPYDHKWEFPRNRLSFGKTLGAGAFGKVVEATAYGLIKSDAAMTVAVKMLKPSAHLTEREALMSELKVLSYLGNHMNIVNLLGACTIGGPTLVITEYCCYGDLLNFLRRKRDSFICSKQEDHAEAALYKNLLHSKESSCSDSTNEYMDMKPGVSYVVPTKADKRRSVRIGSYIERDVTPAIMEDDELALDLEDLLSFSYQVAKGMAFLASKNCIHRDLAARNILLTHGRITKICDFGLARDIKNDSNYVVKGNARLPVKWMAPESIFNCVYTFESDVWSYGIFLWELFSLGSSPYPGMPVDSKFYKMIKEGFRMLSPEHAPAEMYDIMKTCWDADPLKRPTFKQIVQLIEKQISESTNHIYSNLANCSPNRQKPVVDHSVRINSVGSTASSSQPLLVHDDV
Outline: as §1

FLT3 = molecular target: T2, FLT3 (Homo sapiens, UniProt P36888); experiment: Competition binding assay, FLT3 Kd
T2 construct: made in house
T2 sequence (P36888 27-993): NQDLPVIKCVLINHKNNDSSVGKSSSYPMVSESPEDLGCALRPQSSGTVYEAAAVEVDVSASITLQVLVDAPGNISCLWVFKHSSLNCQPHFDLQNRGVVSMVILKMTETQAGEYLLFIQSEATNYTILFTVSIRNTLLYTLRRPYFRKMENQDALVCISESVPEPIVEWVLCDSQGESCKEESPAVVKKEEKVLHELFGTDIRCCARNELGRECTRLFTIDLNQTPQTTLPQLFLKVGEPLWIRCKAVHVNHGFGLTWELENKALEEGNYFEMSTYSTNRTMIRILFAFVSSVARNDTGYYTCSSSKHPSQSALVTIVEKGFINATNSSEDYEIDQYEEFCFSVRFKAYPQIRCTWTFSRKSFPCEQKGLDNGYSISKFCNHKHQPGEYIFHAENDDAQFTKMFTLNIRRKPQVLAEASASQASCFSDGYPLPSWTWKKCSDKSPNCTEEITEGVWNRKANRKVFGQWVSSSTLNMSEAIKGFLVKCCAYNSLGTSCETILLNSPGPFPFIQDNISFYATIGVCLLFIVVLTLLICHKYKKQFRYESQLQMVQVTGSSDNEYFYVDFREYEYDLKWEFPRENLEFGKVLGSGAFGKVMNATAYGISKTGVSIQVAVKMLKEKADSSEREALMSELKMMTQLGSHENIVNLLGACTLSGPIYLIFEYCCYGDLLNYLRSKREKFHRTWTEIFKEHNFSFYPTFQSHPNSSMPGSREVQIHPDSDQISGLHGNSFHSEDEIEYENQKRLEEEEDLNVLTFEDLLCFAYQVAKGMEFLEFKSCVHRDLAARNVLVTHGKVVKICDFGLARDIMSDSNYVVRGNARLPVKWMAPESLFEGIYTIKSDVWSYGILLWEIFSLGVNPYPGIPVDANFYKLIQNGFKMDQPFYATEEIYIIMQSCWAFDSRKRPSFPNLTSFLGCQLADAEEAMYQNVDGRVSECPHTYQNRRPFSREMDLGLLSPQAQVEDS
Outline: as §1

[2] = compounds at 10 μM, 386 or 392 distinct kinases
[3] = 10 μM, panel of 386 or 392 distinct kinases

SMILES	Kinase specificity S(10) [1, 2]	Kd (CSF1R)	Kd (KIT)	Kd (FLT3)	Kinase specificity S(10) [1, 3]	Kd (CSF1R; competition binding)	Kd (KIT; competition binding)	Kd (FLT3; competition binding)
COc1cc2ncn(Cc3ccc4nc(N[C@@H]5CCCCC[C@H]5O)sc4c3)c2cc1OC (racemic) [Example 50, (±)-2-((6-((5,6-dimethoxy-1H-benzo[d]imidazol-1-yl)methyl)benzo[d]thiazol-2-yl)amino)cycloheptanol]	C (C>0.02)	≤ 5 nM	≤ 100 nM	≤ 200 nM				
O[C@@H]1CCCC[C@H]1Nc1nc2ccc(Cn3cnc4cc(Br)cc(F)c43)cc2s1 [Example 203, (1R,2R)-2-((6-((5-bromo-7-fluoro-1H-benzo[d]imidazol-1-yl)methyl)benzo[d]thiazol-2-yl)amino)cyclohexanol]					A (A≤0.01)	5 to 20 nM	≤ 100 nM	200 to 1000 nM
C=Cc1cnc2c(c1)ncn2Cc1ccc2nc(N[C@@H]3CCCC[C@H]3O)sc2c1 [Example 98, (1R,2R)-2-((6-((6-vinyl-3H-imidazo[4,5-b]pyridin-3-yl)methyl)benzo[d]thiazol-2-yl)amino)cyclohexanol]	B (0.01<B≤0.02)	5 to 20 nM	≤ 100 nM	200 to 1000 nM				
OC1(CNc2nc3ccc(Cn4cnc5cccnc54)cc3s2)CCCCC1 [Example 75, 1-(((6-((3H-imidazo[4,5-b]pyridin-3-yl)methyl)benzo[d]thiazol-2-yl)amino)methyl)cyclohexanol]	C (C>0.02)	5 to 20 nM	≤ 100 nM	1000 to 5000 nM				
O[C@@H]1CCCC[C@H]1Nc1nc2ccc(Cn3cnc4cc(-c5cc[nH]n5)ccc43)cc2s1 [Example 211, (1R,2R)-2-((6-((5-(1H-pyrazol-3-yl)-1H-benzo[d]imidazol-1-yl)methyl)benzo[d]thiazol-2-yl)amino)cyclohexanol]					C (C>0.02)	≤ 5 nM	≤ 100 nM	≤ 200 nM
O=C1CCCCN1c1ccc2c(c1)ncn2Cc1ccc2nc(N[C@@H]3CCCC[C@H]3O)sc2c1 [Example 210, 1-(1-((2-(((1R,2R)-2-hydroxycyclohexyl)amino)benzo[d]thiazol-6-yl)methyl)-1H-benzo[d]imidazol-5-yl)piperidin-2-one]					A (A≤0.01)	20 to 50 nM	500 to 2000 nM	> 5000 nM
O[C@@H]1CCCC[C@H]1Nc1nc2ccc(Cn3cnc4cc(CN5CCOCC5)cnc43)cc2s1 [Example 82, (1R,2R)-2-((6-((6-(morpholinomethyl)-3H-imidazo[4,5-b]pyridin-3-yl)methyl)benzo[d]thiazol-2-yl)amino)cyclohexanol]	A (A≤0.01)	5 to 20 nM	500 to 2000 nM	1000 to 5000 nM				
CC(O)c1ccn2c(Cc3ccc4nc(N[C@@H]5CCCC[C@H]5O)sc4c3)cnc2c1 (stereo partly drawn) [Example 201, (1R,2R)-2-((6-((7-(1-hydroxyethyl)imidazo[1,2-a]pyridin-3-yl)methyl)benzo[d]thiazol-2-yl)amino)cyclohexanol]					A (A≤0.01)	20 to 50 nM	500 to 2000 nM	1000 to 5000 nM
Cn1cc(-c2cnc3c(c2)ncn3Cc2ccc3nc(N[C@@H]4CCCC[C@H]4O)sc3c2)cn1 [Example 39, (1R,2R)-2-((6-((6-(1-methyl-1H-pyrazol-4-yl)-3H-imidazo[4,5-b]pyridin-3-yl)methyl)benzo[d]thiazol-2-yl)amino)cyclohexanol]	C (C>0.02)	≤ 5 nM	≤ 100 nM	≤ 200 nM				
CC(=O)c1cnc2c(c1)ncn2Cc1ccc2nc(N[C@@H]3CCCC[C@H]3O)sc2c1 [Example 73, 1-(3-((2-(((1R,2R)-2-hydroxycyclohexyl)amino)benzo[d]thiazol-6-yl)methyl)-3H-imidazo[4,5-b]pyridin-6-yl)ethanone]	A (A≤0.01)	5 to 20 nM	100 to 500 nM	1000 to 5000 nM				
COc1cc2c(cc1Br)ncn2Cc1ccc2nc(N[C@@H]3CCCC[C@H]3O)sc2c1 [Example 41, (1R,2R)-2-((6-((5-bromo-6-methoxy-1H-benzo[d]imidazol-1-yl)methyl)benzo[d]thiazol-2-yl)amino)cyclohexanol]	A (A≤0.01)	5 to 20 nM	100 to 500 nM	200 to 1000 nM				
COc1cc2ncn(Cc3ccc4nc(N[C@@H]5CCCC[C@H]5O)sc4c3)c2cc1-c1cnn(C)c1 [Example 52, (1R,2R)-2-((6-((5-methoxy-6-(1-methyl-1H-pyrazol-4-yl)-1H-benzo[d]imidazol-1-yl)methyl)benzo[d]thiazol-2-yl)amino)cyclohexanol]	C (C>0.02)	≤ 5 nM	≤ 100 nM	≤ 200 nM				
O=C(O)c1cnc2c(c1)ncn2Cc1ccc2nc(N[C@@H]3CCCC[C@H]3O)sc2c1 [Example 81, 3-((2-(((1R,2R)-2-hydroxycyclohexyl)amino)benzo[d]thiazol-6-yl)methyl)-3H-imidazo[4,5-b]pyridine-6-carboxylic acid]	B (0.01<B≤0.02)	20 to 50 nM	100 to 500 nM	1000 to 5000 nM				
COc1cc2ncn(Cc3ccc4nc(NCC5CCCCC5)oc4c3)c2cc1OC [Example 35, N-(cyclohexylmethyl)-6-((5,6-dimethoxy-1H-benzo[d]imidazol-1-yl)methyl)benzo[d]oxazol-2-amine]	C (C>0.02)	≤ 5 nM	≤ 100 nM	≤ 200 nM				
C=CCOc1ccn2c(Cc3ccc4nc(N[C@@H]5CCCC[C@H]5O)sc4c3)cnc2c1 [Example 217, (1R,2R)-2-((6-((7-(allyloxy)imidazo[1,2-a]pyridin-3-yl)methyl)benzo[d]thiazol-2-yl)amino)cyclohexanol]					A (A≤0.01)	5 to 20 nM	500 to 2000 nM	1000 to 5000 nM
O[C@@H]1CCCC[C@H]1Nc1nc2ccc(Cc3cnc4cc(-n5ccnc5)ccn34)cc2s1 [Example 214, (1R,2R)-2-((6-((7-(1H-imidazol-1-yl)imidazo[1,2-a]pyridin-3-yl)methyl)benzo[d]thiazol-2-yl)amino)cyclohexanol]					B (0.01<B≤0.02)	≤ 5 nM	100 to 500 nM	> 5000 nM
CON=C(C)c1ccn2c(Cc3ccc4nc(N[C@@H]5CCCC[C@H]5O)sc4c3)cnc2c1 [Example 204, 1-(3-((2-(((1R,2R)-2-hydroxycyclohexyl)amino)benzo[d]thiazol-6-yl)methyl)imidazo[1,2-a]pyridin-7-yl)ethanone O-methyl oxime]					A (A≤0.01)	5 to 20 nM	100 to 500 nM	1000 to 5000 nM
